Measurements reported in patent US6706740B2, “Fungicidal heterocyclic aromatic amides and their compositions, methods of use and preparation” (Dow AgroSciences LLC, priority 1999, dated 2004).
Where two headings read alike, the source gives them in different places.

How the values were obtained:
[1] = tested on: Magnaporthe grisea (Pyricularia oryzae—PYRIOR); test: microbe, parasite or virus in culture; assay type: cell-based; details: Pyricularia oryzae, read-out: PYRIOR in vitro Growth Inhibition
[2] = tested on: Rhizoctonia solani (RHIZSO); test: microbe, parasite or virus in culture; assay type: cell-based; details: Rhizoctonia solani, read-out: RHIZSO in vitro Growth Inhibition
[3] = tested on: Mycosphaerella graminicola (Septoria tritici—SEPTTR); test: In vitro fungal growth inhibition, Mycosphaerella graminicola (SEPTTR); assay type: cell-based; details: Zymoseptoria tritici, read-out: SEPTTR in vitro Growth Inhibition
[4] = tested on: Stagonospora nodorum (Leptosphaeria nodorum—LEPTNO); test: In vitro fungal growth inhibition, Stagonospora nodorum (LEPTNO); assay type: cell-based; details: Leptosphaeria, read-out: LEPTNO in vitro Growth Inhibition
[5] = tested on: Ustilago maydis (USTIMA); test: microbe, parasite or virus in culture; assay type: cell-based; details: Mycosarcoma maydis, read-out: USTIMA in vitro Growth Inhibition
[6] = tested on: Phytophthora infestans (PHYTIN); test: microbe, parasite or virus in culture; assay type: cell-based; details: Phytophthora infestans, read-out: PHYTIN in vitro Growth Inhibition
[7] = tested on: Phytophthora infestans—PHYTIN; test: whole plant or invertebrate; assay type: in vivo; details: for pest or weed control at 100 ppm: Phytophthora, in Solanum lycopersicum, 24 h, read-out: PHYTIN in vivo 1 Day Protectant
[8] = tested on: Puccinia recondita—PUCCRT; test: Brown Rust of Wheat, in vivo whole plant, 24 Hour Protectant; details: for pest or weed control at 100 ppm: Puccinia, read-out: PUCCRT in vivo 1 Day Protectant
[9] = tested on: Erysiphe graminis—ERYSGT; test: Powdery Mildew of Wheat, in vivo whole plant, 24 Hour Protectant; details: for pest or weed control at 100 ppm: Erysiphe, read-out: ERYSGT in vivo 1 Day Protectant
[10] = tested on: Septoria tritici—SEPTTR; test: Leaf Blotch of Wheat, in vivo whole plant, 24 Hour Protectant; details: for pest or weed control at 100 ppm: Zymoseptoria tritici, 24 h, control of fungal infection vs untreated plants, read-out: SEPTTR in vivo 1 Day Protectant
[11] = tested on: Leptosphaeria nodorum—LEPTNO; test: Glume Blotch of Wheat, in vivo whole plant, 24 Hour Protectant; details: for pest or weed control at 100 ppm: Leptosphaeria, read-out: LEPTNO in vivo 1 Day Protectant
[12] = 100 ppm spray, 24 hour protectant, wheat, control of fungal infection vs untreated plants
[13] = 100 ppm spray, 24 hour protectant, wheat
[14] = wheat plants sprayed at 100 ppm, inoculated after 24 hours, control of fungal infection vs untreated plants
[15] = wheat plants sprayed at 100 ppm, inoculated after 24 hours
[16] = 100 ppm spray, wheat, 24 hour protectant, % control of fungal infection vs untreated plants
[17] = 100 ppm spray, wheat, 24 hour protectant, control of fungal infection vs untreated plants
[18] = 100 ppm spray, wheat, 24 hour protectant

SMILES	inhibition at 25 ppm [1] [%]	inhibition at 25 ppm [2] [%]	inhibition at 25 ppm ([3]; 25 ppm in growth medium) [%]	inhibition at 25 ppm ([4]; 25 ppm in growth medium) [%]	inhibition at 25 ppm [5] [%]	inhibition at 25 ppm [6] [%]	pest or weed control at 100 ppm [7] [%]	pest or weed control at 100 ppm [8, 12] [%]	pest or weed control at 100 ppm [9, 12] [%]	pest or weed control at 100 ppm [10, 13] [%]	other results
COc1ccnc(C(=O)NC2CC(c3ccco3)CC(C)(C)C2)c1O (stereo not drawn) [Compound 258]	< 80	< 80	> 80	> 80	< 80	> 80	< 25	< 25	< 25	25 to 74	pest or weed control at 100 ppm [11, 12]: 25 to 74%
CC(NC(=O)c1ccncc1O)c1ccc(Oc2ccccc2)cc1 (stereo not drawn) [Compound 512]	< 80	< 80	–	–	< 80	< 80	25 to 74	–	–	–	inhibition at 25 ppm ([3]; 25 ppm in the growth medium): < 80%; inhibition at 25 ppm ([4]; 25 ppm in the growth medium): < 80%; pest or weed control at 100 ppm [8, 14]: < 25%; pest or weed control at 100 ppm [9, 14]: < 25%; pest or weed control at 100 ppm [10, 15]: < 25%; pest or weed control at 100 ppm [11, 14]: < 25%
COc1ccnc(C(=O)NC(COC(=O)CCc2ccccc2)C(=O)OC(C)COC(=O)C(C)C)c1OC(C)=O (stereo not drawn) [Compound 590]	< 80	< 80	–	–	< 80	< 80	< 25	–	–	–	inhibition at 25 ppm ([3]; 25 ppm in the growth medium): < 80%; inhibition at 25 ppm ([4]; 25 ppm in the growth medium): < 80%; pest or weed control at 100 ppm [8, 14]: 25 to 74%; pest or weed control at 100 ppm [9, 14]: < 25%; pest or weed control at 100 ppm [10, 15]: 25 to 74%; pest or weed control at 100 ppm [11, 14]: 25 to 74%
COc1ccnc(C(=O)NC2CC(C)(C)CC(C)(C(=O)CCCc3ccccc3)C2)c1O (stereo not drawn) [Compound 276]	< 80	< 80	< 80	> 80	< 80	< 80	< 25	25 to 74	< 25	25 to 74	LEPTNO in vivo 1 Day Protectant [11, 12]: + +
Cc1cccc(CNC(=O)c2ncccc2O)c1 [Compound 222]	< 80	< 80	< 80	< 80	< 80	< 80	< 25	25 to 74	< 25	< 25	pest or weed control at 100 ppm [11, 12]: < 25%
CC(C)C(=O)O[C@H]1[C@H](C)OC(=O)[C@@H](NC(=O)c2nsnc2O)COC(=O)[C@@H]1Cc1ccccc1 [Compound 553]	> 80	> 80	–	–	> 80	> 80	–	–	–	–	inhibition at 25 ppm ([3]; 25 ppm in the growth medium): > 80%; inhibition at 25 ppm ([4]; 25 ppm in the growth medium): > 80%; PHYTIN in vivo 1 Day Protectant ([7]; tomato plants sprayed at 100 ppm, inoculated after 24 hours, control of fungal infection vs untreated plants): + +; pest or weed control at 100 ppm [8, 14]: 25 to 74%; pest or weed control at 100 ppm [9, 14]: 25 to 74%; pest or weed control at 100 ppm [10, 15]: 25 to 74%; LEPTNO in vivo 1 Day Protectant [11, 14]: + +
COc1ccnc(C(=O)NC2CCCC(Sc3ccc(C(F)(F)F)cn3)C2)c1O (stereo not drawn) [Compound 274]	> 80	> 80	> 80	> 80	< 80	> 80	< 25	–	< 25	25 to 74	PUCCRT in vivo 1 Day Protectant [8, 12]: + +; LEPTNO in vivo 1 Day Protectant [11, 12]: + +
COc1ccnc(C(=O)NC2C3CSC2CN(Cc2ccccc2)C3)c1O (stereo not drawn) [Compound 325]	< 80	< 80	< 80	< 80	< 80	< 80	< 25	< 25	< 25	< 25	pest or weed control at 100 ppm [11, 12]: 25 to 74%
COc1ccnc(C(=O)N[C@@H]2C[C@@H](C(F)(F)F)C[C@@H](C(F)(F)F)C2)c1OC(C)=O [Compound 577]	< 80	< 80	–	–	< 80	< 80	< 25	–	–	–	inhibition at 25 ppm ([3]; 25 ppm in the growth medium): < 80%; inhibition at 25 ppm ([4]; 25 ppm in the growth medium): < 80%; pest or weed control at 100 ppm [8, 14]: < 25%; pest or weed control at 100 ppm [9, 14]: < 25%; pest or weed control at 100 ppm [10, 15]: 25 to 74%; pest or weed control at 100 ppm [11, 14]: 25 to 74%
COc1ccnc(C(=O)N[C@H]2COC(=O)[C@H](Cc3ccccc3)[C@@H](OC(=O)C(C)C)[C@H](C)OC2=O)c1OC(=O)OCCBr [Compound 692]	> 80	< 80	> 80	> 80	< 80	< 80	< 25	–	–	–	PUCCRT in vivo 1 Day Protectant [8, 16]: + +; pest or weed control at 100 ppm [9, 16]: < 25%; SEPTTR in vivo 1 Day Protectant [10, 16]: + +; LEPTNO in vivo 1 Day Protectant [11, 16]: + +
COc1ccnc(C(=O)N[C@H]2COC(=O)[C@H](Cc3ccccc3)[C@@H](OC(=O)C(C)C)[C@H](C)OC2=O)c1OC(=O)CCc1ccccc1 [Compound 650]	> 80	< 80	–	–	< 80	< 80	< 25	–	–	–	inhibition at 25 ppm [3]: < 80%; inhibition at 25 ppm [4]: > 80%; PUCCRT in vivo 1 Day Protectant ([8]; in vivo): + +; pest or weed control at 100 ppm ([9]; 24 h): < 25%; SEPTTR in vivo 1 Day Protectant ([10]; in vivo): + +; LEPTNO in vivo 1 Day Protectant ([11]; in vivo): + +
COc1ccnc(C(=O)NC2C[C@H](C)C[C@H](c3ccccn3)C2)c1O (stereo partly drawn) [Compound 259]	< 80	< 80	< 80	< 80	< 80	< 80	25 to 74	25 to 74	< 25	25 to 74	pest or weed control at 100 ppm [11, 12]: 25 to 74%
COc1ccnc(C(=O)Nc2ccc(Oc3ccc(C#N)cc3)cc2)c1O [Compound 422]	> 80	< 80	< 80	< 80	< 80	< 80	25 to 74	–	–	–	pest or weed control at 100 ppm [8, 17]: < 25%; pest or weed control at 100 ppm [9, 17]: < 25%; pest or weed control at 100 ppm [10, 18]: < 25%; pest or weed control at 100 ppm [11, 17]: < 25%
COc1ccnc(C(=O)Nc2ccc(Oc3ccccc3C#N)cc2)c1O [Compound 420]	< 80	< 80	< 80	< 80	< 80	< 80	< 25	–	–	–	pest or weed control at 100 ppm [8, 17]: < 25%; pest or weed control at 100 ppm [9, 17]: < 25%; pest or weed control at 100 ppm [10, 18]: < 25%; pest or weed control at 100 ppm [11, 17]: 25 to 74%
COCC(=O)Oc1c(OC)ccnc1C(=O)N[C@H]1COC(=O)[C@H](Cc2ccccc2)[C@@H](OC(=O)C(C)C)[C@H](C)OC1=O [Compound 653]	< 80	< 80	> 80	> 80	< 80	< 80	< 25	–	–	–	PUCCRT in vivo 1 Day Protectant [8, 16]: + +; ERYSGT in vivo 1 Day Protectant [9, 16]: + +; SEPTTR in vivo 1 Day Protectant [10, 16]: + +; LEPTNO in vivo 1 Day Protectant [11, 16]: + +
